{"source": "patent US6908761B1", "about": "“Transcriptional activators” (Otsuka Pharmaceutical Co., Ltd., priority 1999, dated 2005)", "format_in_all_cases": "cell-based, Human", "key": {"[1]": {"tested_on": "ARE sequence of the glutathione S-transferase Ya gene (SEQ ID NO: 5)", "assay": "Luciferase reporter assay, 3xARE/RBGP-Luc (ARE of SEQ ID NO: 5) in HepG2", "settings": "HepG2, FIG. 4", "source_text": "(§1) Then, 3 copies (Mol. Cell. Biol., 14, 700-712 (1994)) of various oligonucleotides (32-mers) containing the MARE sequences of SEQ ID NO: 1 through 7, comparative or control MARE sequences (SEQ ID NO: 1-4, 6 and 7), and an ARE sequence (SEQ ID NO: 5) were respectively inserted into the XhoI site of pUC118 vector with a modified poly-linker sequence. Further, the portion containing the 3 repeats of MARE sequence was excised at KpnI/BamHI site and inserted into the KpnI/BamHI site of pRBGP3. As an example of the above 32mer sequence, the one containing MARE of SEQ ID NO: 2 is shown in SEQ ID NO: 20. Here, tcgag represents the XhoI site.\n(§2) Thus obtained were 3xMARE/RBGP-Luc and 3xARE/RBGP-Luc plasmids containing 3 repeats of 32 oligonucleotide sequences containing the 13 oligonucleotides shown in SEQ ID NO: 1 through 7 (MARE sequences, ARE sequences, and the corresponding comparative and control sequences). SEQ ID NO: 21 is an example of the sequence contained in the resulting 3xMARE/RBGP-Luc using SEQ ID NO: 2 as MARE. The obtained recombinant expression vectors were used for subsequent transfections.\n(§3) Transfections were carried out using SUPERFECT Transfection Reagent (Qiagen) according to the protocol accompanying the reagent. Human hepatocellular calcinoma cell line HepG2 was subcultured on a 35 mm plate and, after 24 hours, the transfection was carried out. Thus, a transfection solution containing 100 μl of a vector solution containing 0.25 μg of the above plasmid, 100 μl of SUPERFECT transfection reagent, and 600 μl of DMEM serum-free medium were added to a PBS-washed cell plate. After 2 hours of incubation at 37° C., the medium was changed to 10% FCS-supplemented DMEM. After 2 hours, stimulating reagents containing various heavy metal compounds inclusive of auranofin; Ridaura™, product of Sigma; 2,3,4,6-tetra-O-acetyl-1-thio-β-D-glucopyranosato-S) (triethylphosphine)gold were added and the culture was continued. The luciferase activity in the cells was assayed 15-18 hours later.\n(§4) The assay of luciferase activity was carried out using Dual-Luciferase Reporter Assay System (product of Promega) according to the manufacture's protocol.\n(§5) To the culture plate was added 100 μl of the cytolytic buffer included in the […] kit to lyse the cells, and using a bench-top centrifuge, the lysate was centrifuged at 15,000 rpm for 5 seconds. The supernatant, 20 μl, of the lysate was mixed with 100 μl of the attached reagent LARII and the first chemiluminescence was measured with a luminometer. Then, 100 μl of the stopper (Stop & Glo Reagent) was added and the second chemniluminescence was measured.\n(§6) The ratio of the first and second chemiluminescences was determined to calculate luciferase activity.\nThe results are shown in FIG. 4 similar to FIG. 1 (the abbreviations of reagents added are the same as above; each luciferase activity ratio was calculated with the control value found by culture of the vector in the absence of the test reagent being taken as 1)."}, "[2]": {"tested_on": "MARE sequence of SEQ ID NO: 2", "assay": "Luciferase reporter assay, 3xMARE/RBGP-Luc (MARE of SEQ ID NO: 2) transfected into HepG2", "source_text": "(a) Construction of a Recombinant Vector\nAs the basal skeleton of the recombinant vector, pGL2-Basic (product of Promega) was used. This vector is a luciferse expression vector.\nThe SV40 promoter of the above pGL2-Basic was substituted with oligonucleotides (SEQ ID NO: 8 and NO: 9, 41-mer each) containing the TATA sequence of rabbit β-globin promoter at Bgl II/Hind III site to construct pRBGP3 (Nature, 367, 568-572 (1994)).\nas §1, §2, §3, §4, §5, §6\nThe recombinant expression vector (reporter plasmid) ligated with the MARE sequence of SEQ ID NO: 2 as constructed under (a) above, namely 3xMARE/RBGP-Luc, was used. Stimulating reagents containing various heavy metal compounds, namely 100 μM each of manganese chloride (MnCl2), cobalt chloride (CoCl2), nickel chloride (NiCl2), copper sulfate (CuSO4), zinc sulfate (ZnSO4), cadmium sulfate (CdSO4), mercury chloride (HgCl2) and sodium tetrachloroaurate(III) (Na(AuCl4)) and 5 μM of auranofin, were respectively added and the cells were cultured by the above procedure (b) for 18 hours. Then, luciferase activity was measured by the procedure described under (c) above. […]"}, "[3]": {"tested_on": "MARE sequence of SEQ ID NO: 1", "assay": "Luciferase reporter assay, 3xMARE/RBGP-Luc (MARE of SEQ ID NO: 1) in HepG2", "settings": "5 μM auranofin vs absence, 18 hours, HepG2, FIG. 3", "source_text": "as §1, with “site. […]” for “site.”\nas §5\n(§7) The ratio of the first and second chemiluminescences was determined to calculate luciferase activity. […]"}, "[4]": {"tested_on": "5xSRE (c-fos) serum response element", "assay": "Luciferase reporter assay, positive control 5xSRE (c-fos) in HepG2", "settings": "5 μM auranofin vs absence, 18 hours, HepG2, FIG. 3", "method": "as §3, with “After 2 hours, stimulating reagents containing various heavy metal compounds inclusive of auranofin; Ridaura™, product of Sigma; 2,3,4,6-tetra-O-acetyl-1-thio-β-D-glucopyranosato-S) (triethylphosphine)gold were added and the culture was continued. The luciferase activity in the cells was assayed 15-18 hours later.” left out\nas §5, §7\n(§8) Each of the above vectors was cultured by the above procedure (b) for 18 hours in the presence of 5 μM auranofin or in the absence thereof and the luciferase activity was measured by the above procedure (c). […]"}, "[5]": {"tested_on": "MARE sequence of SEQ ID NO: 4", "assay": "Luciferase reporter assay, 3xMARE/RBGP-Luc (MARE of SEQ ID NO: 4) in HepG2", "settings": "5 μM auranofin vs absence, 18 hours, HepG2, FIG. 3", "source_text": "as §1, with “site. […]” for “site.”\nas §5, §7"}, "[6]": {"tested_on": "MARE sequence of SEQ ID NO: 3", "assay": "Luciferase reporter assay, 3xMARE/RBGP-Luc (MARE of SEQ ID NO: 3) in HepG2", "settings": "5 μM auranofin vs absence, 18 hours, HepG2, FIG. 3", "source_text": "as §1, with “site. […]” for “site.”\nas §5, §7"}, "[7]": {"tested_on": "control MARE of SEQ ID No: 6", "assay": "Luciferase reporter assay, control MARE of SEQ ID NO: 6 in HepG2", "settings": "5 μM auranofin vs absence, 18 hours, HepG2, FIG. 3", "source_text": "as §1, with “site. […]” for “site.”\nas §5, §7"}, "5xkB (IL2R-a) kB element": {"tested_on": "5xkB (IL2R-a) kB element", "assay": "Luciferase reporter assay, positive control 5xkB (IL2R-a) in HepG2", "settings": "5 μM auranofin vs absence, 18 hours, HepG2, FIG. 3", "method": "as §3, with “After 2 hours, stimulating reagents containing various heavy metal compounds inclusive of auranofin; Ridaura™, product of Sigma; 2,3,4,6-tetra-O-acetyl-1-thio-β-D-glucopyranosato-S) (triethylphosphine)gold were added and the culture was continued. The luciferase activity in the cells was assayed 15-18 hours later.” left out\nas §5, §7, §8"}, "[8]": {"tested_on": "AP-1 (activator protein-1) element of SEQ ID NO: 7", "assay": "Luciferase reporter assay, AP-1 element of SEQ ID NO: 7 in HepG2", "settings": "5 μM auranofin vs absence, 18 hours, HepG2, FIG. 3", "source_text": "as §1, with “site. […]” for “site.”\nas §5, §7"}, "[9]": {"settings": "100 μM heavy metal compound, 18 hours, HepG2, control taken as 1, FIG. 1"}}}
{"smiles": "OC[C@H]1O[C@H]([S-])[C@H](O)[C@@H](O)[C@@H]1O.[Au+]", "note": "[AuTG, (1-thio-D-glucopyranosato)gold]", "values": [{"measurement": "activity ratio (luciferase activity ratio, control taken as 1)", "setting": "[1]; 500 μM", "value": "21.7±15.4"}]}
{"smiles": "O=C([O-])CC([S-])C(=O)[O-].[Au+].[Na+].[Na+]", "note": "(centres unmarked) [AuTM, sodium aurothiomalate]", "values": [{"measurement": "activity ratio (luciferase activity ratio, control taken as 1)", "setting": "[1]; 100 μM", "value": "8.1±0.4"}]}
{"smiles": "CC[PH](CC)(CC)[Au][S][C@@H]1O[C@H](COC(C)=O)[C@@H](OC(C)=O)[C@H](OC(C)=O)[C@H]1OC(C)=O", "note": "[auranofin, (2,3,4,6-tetra-O-acetyl-1-thio-β-D-glucopyranosato-S)(triethylphosphine)gold]", "values": [{"measurement": "transcription activity ratio (luciferase activity ratio)", "setting": "[2]; 5 μM auranofin vs absence, 18 hours, HepG2, FIG. 3, study (3)", "value": 158.7}, {"measurement": "luciferase activity in multiples of untreated control (Fold Activation)", "setting": "[2]; 5 μM auranofin, 18 hours, HepG2, control taken as 1, FIG. 1, study (1)", "value": 142.4, "unit": "times"}, {"measurement": "dose dependence of MARE activation (luciferase activity ratio, Fold Activation)", "setting": "[2]; AUR 0.5-20 μM, AuTG 20-500 μM, AuTM 10-500 μM, HepG2, FIG. 2", "value": "outstanding luciferase activation compared with the other two kinds of gold compounds"}, {"measurement": "transcription activity ratio (luciferase activity ratio)", "setting": "[3]", "value": 53.3}, {"measurement": "action on the reporter (luciferase activity ratio)", "setting": "[4]", "value": "does not act on"}, {"measurement": "transcription activity ratio (luciferase activity ratio)", "setting": "[5]", "value": 112.9}, {"measurement": "transcription activity ratio (luciferase activity ratio)", "setting": "[6]", "value": 30.8}, {"measurement": "action on the reporter (luciferase activity ratio)", "setting": "[7]", "value": "does not act on"}, {"measurement": "activity ratio (luciferase activity ratio, control taken as 1)", "setting": "[1]; 5 μM", "value": "102.9±53.4"}, {"measurement": "activity relative to that of tBHQ", "setting": "[1]; AUR 5 μM vs tBHQ 60 μM", "value": "about 30 times"}, {"measurement": "action on the reporter (luciferase activity ratio)", "setting": "5xkB (IL2R-a) kB element", "value": "does not act on"}, {"measurement": "action on the reporter (luciferase activity ratio)", "setting": "[8]", "value": "does not act on"}]}
{"smiles": "O=S(=O)([O-])[O-].[Cd+2]", "note": "[cadmium sulfate]", "values": [{"measurement": "luciferase activity in multiples of untreated control (Fold Activation)", "setting": "[2]; [9]", "value": 27.3}]}
{"smiles": "[Cl][Co][Cl]", "note": "[cobalt chloride]", "values": [{"measurement": "luciferase activity in multiples of untreated control (Fold Activation)", "setting": "[2]; [9]", "value": 6.9}]}
{"smiles": "[Cl][Hg][Cl]", "note": "[mercury chloride]", "values": [{"measurement": "luciferase activity in multiples of untreated control (Fold Activation)", "setting": "[2]; [9]", "value": 10}]}
{"smiles": "[Cl][Au-]([Cl])([Cl])[Cl].[Na+]", "note": "[sodium tetrachloroaurate(III)]", "values": [{"measurement": "luciferase activity in multiples of untreated control (Fold Activation)", "setting": "[2]; [9]", "value": 4.3}]}
{"smiles": "CC(C)(C)c1cc(O)c(C(C)(C)C)cc1O", "note": "[tBHQ, 2,5-di-tert-butylhydroquinone]", "values": [{"measurement": "activity ratio (luciferase activity ratio, control taken as 1)", "setting": "[1]; 60 μM", "value": "6.0±3.8"}]}
{"smiles": "O=C(O)CC(S)C(=O)O", "note": "(centres unmarked) [thiomalate]", "values": [{"measurement": "activity ratio (luciferase activity ratio, control taken as 1)", "setting": "[1]; 100 μM", "value": "2.1±0.6"}]}
